The text below walks through data of patent US20120172385A1, “ORTHO SUBSTITUTED PYRIMIDINE COMPOUNDS AS JAK INHIBITORS” (priority 2009, published 2012).

One assay addresses T1, JAK3 (Homo sapiens, UniProt P52333).
T1 construct: endogenous in cells; host or cells: Molt4 (ATCC CRL-1582) and Ramos (ATCC CRL-1596) cell lysate, mixed 1:2
T1 sequence (P52333 1-1124): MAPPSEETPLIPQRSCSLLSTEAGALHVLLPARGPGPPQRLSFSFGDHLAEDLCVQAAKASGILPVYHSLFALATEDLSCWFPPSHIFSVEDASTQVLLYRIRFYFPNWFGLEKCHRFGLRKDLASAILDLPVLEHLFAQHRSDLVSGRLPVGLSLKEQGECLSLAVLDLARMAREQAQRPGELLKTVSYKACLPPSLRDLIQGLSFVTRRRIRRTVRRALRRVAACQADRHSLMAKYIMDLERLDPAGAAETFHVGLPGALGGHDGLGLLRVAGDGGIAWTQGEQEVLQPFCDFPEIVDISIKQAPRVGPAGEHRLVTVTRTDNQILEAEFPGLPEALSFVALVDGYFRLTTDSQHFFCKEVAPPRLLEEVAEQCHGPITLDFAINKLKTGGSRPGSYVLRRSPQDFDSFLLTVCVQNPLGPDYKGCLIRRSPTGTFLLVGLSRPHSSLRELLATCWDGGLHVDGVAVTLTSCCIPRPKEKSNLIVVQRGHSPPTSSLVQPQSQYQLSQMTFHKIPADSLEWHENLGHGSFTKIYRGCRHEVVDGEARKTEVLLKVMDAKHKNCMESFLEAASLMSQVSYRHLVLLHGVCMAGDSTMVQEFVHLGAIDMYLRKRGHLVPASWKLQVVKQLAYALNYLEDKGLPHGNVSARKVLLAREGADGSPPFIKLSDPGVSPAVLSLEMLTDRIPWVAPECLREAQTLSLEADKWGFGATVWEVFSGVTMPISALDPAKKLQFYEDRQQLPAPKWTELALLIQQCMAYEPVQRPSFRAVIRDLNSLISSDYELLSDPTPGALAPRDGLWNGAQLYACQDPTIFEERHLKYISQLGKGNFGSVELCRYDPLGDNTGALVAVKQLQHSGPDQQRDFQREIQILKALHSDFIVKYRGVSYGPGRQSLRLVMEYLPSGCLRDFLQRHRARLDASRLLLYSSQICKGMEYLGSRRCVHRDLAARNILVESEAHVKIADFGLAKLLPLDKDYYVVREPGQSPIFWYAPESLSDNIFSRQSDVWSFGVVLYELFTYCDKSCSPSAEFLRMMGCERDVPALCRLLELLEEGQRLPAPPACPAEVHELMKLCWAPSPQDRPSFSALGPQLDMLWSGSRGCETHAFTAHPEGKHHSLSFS
Kind of assay: Kinobeads assay, JAK3 (dot blot detection). The format is binding. To be noted: mixed Molt4/Ramos lysate. The method, then:
(§1) The compounds of the present invention as described in the previous examples were tested in a Kinobeads™ assay as described for ZAP-70 (WO-A 2007/137867). Briefly, test compounds (at various concentrations) and the affinity matrix with the immobilized aminopyrido-pyrimidine ligand 24 were added to cell lysate aliquots and allowed to bind to the proteins in the lysate sample. After the incubation time the beads with captured proteins were separated from the lysate. Bound proteins were then eluted and the presence of JAK2 and JAK3 was detected and quantified using specific antibodies in a dot blot procedure and the Odyssey infrared detection system. Dose response curves for individual kinases were generated and IC50 values calculated. Kinobeads™ assays for ZAP-70 (WO-A 2007/137867) and for kinase selectivity profiling (WO-A 2006/134056) have been previously described.
(§2) The affinity matrix was washed two times with 15 mL of 1×DP buffer containing 0.2% NP40 (IGEPAL® CA-630, Sigma, #I3021) and then resuspended in 1×DP buffer containing 0.2% NP40 (3% beads slurry).
(§3) 5×DP buffer: 250 mM Tris-HCl pH 7.4, 25% Glycerol, 7.5 mM MgCl2, 750 mM NaCl, 5 mM Na3VO4; filter the 5×DP buffer through a 0.22 μm filter and store in aliquots at −80° C. The 5×DP buffer is diluted with H2O to 1×DP buffer containing 1 mM DTT and 25 mM NaF.
(§4) Stock solutions of test compounds were prepared in DMSO. In a 96 well plate 30 μL solution of diluted test compounds at 5 mM in DMSO were prepared. Starting with this solution a 1:3 dilution series (9 steps) was prepared. For control experiments (no test compound) a buffer containing 2% DMSO was used.
(§5) Molt4 cells (ATCC catalogue number CRL-1582) and Ramos cells (ATCC catalogue number CRL-1596) were grown in 1 L Spinner flasks (Integra Biosciences, #182101) in suspension in RPMI 1640 medium (Invitrogen, #21875-034) supplemented with 10% Fetal Bovine Serum (Invitrogen) at a density between 0.15×10^6 and 1.2×10^6 cells/mL. Cells were harvested by centrifugation, washed once with 1×PBS buffer (Invitrogen, #14190-094) and cell pellets were frozen in liquid nitrogen and subsequently stored at −80° C. Cells were homogenized in a Potter S homogenizer in lysis buffer: 50 mM Tris-HCl, 0.8% NP40, 5% glycerol, 150 mM NaCl, 1.5 mM MgCl2, 25 mM NaF, 1 mM sodium vanadate, 1 mM DTT, pH 7.5. One complete EDTA-free tablet (protease inhibitor cocktail, Roche Diagnostics, 1873580) per 25 mL buffer was added. The material was dounced 10 times using a mechanized POTTER S, transferred to 50 mL falcon tubes, incubated for 30 minutes on ice and spun down for 10 minutes at 20,000 g at 4° C. (10,000 rpm in Sorvall SLA600, precooled). The supernatant was transferred to an ultracentrifuge (UZ)-polycarbonate tube (Beckmann, 355654) and spun for 1 hour at 100.000 g at 4° C. (33.500 rpm in Ti50.2, precooled). The supernatant was transferred again to a fresh 50 mL falcon tube, the protein concentration was determined by a Bradford assay (BioRad) and samples containing 50 mg of protein per aliquot were prepared. The samples were immediately used for experiments or frozen in liquid nitrogen and stored frozen at −80° C.
(§6) Cell lysate (approximately 50 mg protein per plate) was thawed in a water bath at room temperature and then stored on ice. To the thawed cell lysate 1×DP 0.8% NP40 buffer containing protease inhibitors (1 tablet for 25 mL buffer; EDTA-free protease inhibitor cocktail; Roche Diagnostics 1873580) was added in order to reach a final protein concentration of 10 mg/mL total protein. The diluted cell lysate was stored on ice. Mixed Molt4/Ramos lysate was prepared by combining one volume of Molt4 lysate and two volumes of Ramos lysate (ratio 1:2).
(§7) To a 96 well filter plate (Multiscreen HTS, BV Filter Plates, Millipore #MSBVN1250) were added per well: 100 μL affinity matrix (3% beads slurry), 3 μL of compound solution, and 50 μL of diluted lysate. […]

For the next assay, the target named is T2, JAK2 (Homo sapiens, UniProt O60674).
T2 construct: endogenous in cells; host or cells: Molt4 (ATCC CRL-1582) and Ramos (ATCC CRL-1596) cell lysate, mixed 1:2
T2 sequence (O60674 whole entry): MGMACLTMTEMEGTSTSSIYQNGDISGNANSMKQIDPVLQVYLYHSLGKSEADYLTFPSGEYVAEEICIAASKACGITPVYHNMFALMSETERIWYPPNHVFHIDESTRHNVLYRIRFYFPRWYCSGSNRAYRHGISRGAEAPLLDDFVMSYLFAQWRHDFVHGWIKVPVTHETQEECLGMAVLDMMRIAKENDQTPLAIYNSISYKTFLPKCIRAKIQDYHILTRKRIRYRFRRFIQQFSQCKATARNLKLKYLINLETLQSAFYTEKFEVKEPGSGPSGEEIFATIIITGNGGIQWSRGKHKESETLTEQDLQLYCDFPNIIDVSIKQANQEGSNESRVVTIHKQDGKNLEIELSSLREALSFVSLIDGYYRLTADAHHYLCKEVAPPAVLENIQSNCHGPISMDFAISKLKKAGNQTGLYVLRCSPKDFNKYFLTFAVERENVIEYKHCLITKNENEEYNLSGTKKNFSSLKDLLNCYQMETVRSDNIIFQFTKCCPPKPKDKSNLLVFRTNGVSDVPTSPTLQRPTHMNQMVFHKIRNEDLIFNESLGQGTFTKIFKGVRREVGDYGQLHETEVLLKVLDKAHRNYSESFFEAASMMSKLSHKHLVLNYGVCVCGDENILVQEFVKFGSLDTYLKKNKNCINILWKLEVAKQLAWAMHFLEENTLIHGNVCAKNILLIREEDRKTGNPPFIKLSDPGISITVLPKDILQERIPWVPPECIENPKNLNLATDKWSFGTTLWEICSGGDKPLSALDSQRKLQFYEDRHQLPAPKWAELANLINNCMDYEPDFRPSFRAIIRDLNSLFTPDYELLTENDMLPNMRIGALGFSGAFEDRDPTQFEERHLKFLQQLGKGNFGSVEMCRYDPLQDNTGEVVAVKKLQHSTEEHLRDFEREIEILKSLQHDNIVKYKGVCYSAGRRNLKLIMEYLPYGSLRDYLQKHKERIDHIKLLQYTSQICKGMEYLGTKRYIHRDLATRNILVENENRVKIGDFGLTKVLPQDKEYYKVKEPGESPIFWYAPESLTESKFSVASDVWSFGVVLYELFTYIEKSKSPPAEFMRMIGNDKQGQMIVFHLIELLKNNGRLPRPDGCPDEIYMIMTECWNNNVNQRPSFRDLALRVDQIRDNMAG
The assay can be described thus: Kinobeads assay, JAK2 (dot blot detection). The format is binding. Particulars: mixed Molt4/Ramos lysate. The method, then: as §1, §2, §3, §4, §5, §6, §7

In another assay the test system is organ transplantation. Particulars: Changelian et al., 2003; cited from earlier work.
In a further assay the test system is GVHD. Particulars: reviewed in Cetkovic-Cvrlje and Ucken, 2004; cited from earlier work.
Assay [1] relates to spontaneous autoimmune diabetes. Particulars: NOD mouse model of type I diabetes; cited from earlier work.

As for `COc1ccc(Nc2nc(Nc3cc(-n4cnnc4)ccc3OC)ncc2Cl)c(NS(C)(=O)=O)c1` [Example 11, N-(2-(5-chloro-2-(2-methoxy-5-(4H-1,2,4-triazol-4-yl)phenylamino)pyrimidin-4-ylamino)-5-methoxyphenyl)methanesulfonamide], the IC50 on JAK3 is below 100 nM; against JAK2, 1000 to 10000 nM.
`COc1ccc(Nc2nc(Nc3cc(-n4cnnn4)ccc3C)ncc2Cl)c(NS(C)(=O)=O)c1` [Example 12, N-(2-(5-chloro-2-(2-methyl-5-(1H-tetrazol-1-yl)phenylamino)pyrimidin-4-ylamino)-5-methoxyphenyl)methanesulfonamide]: the IC50 at JAK3 was below 100 nM; on JAK2, 1000 to 10000 nM.
`CCNC(=O)c1ccc(OC)c(Nc2ncc(Cl)c(Nc3ccccc3NS(=O)(=O)CC)n2)c1` [Example 26, 3-(5-chloro-4-(2-(ethylsulfonamido)phenylamino)pyrimidin-2-ylamino)-N-ethyl-4-methoxybenzamide]: the half-inhibitory concentration (IC50) at JAK3 was 100 to 1000 nM; on JAK2, at least 10000 nM.
On to `COc1ccc(C(=O)N2CCCCC2)cc1Nc1ncc(Cl)c(Nc2ccccc2NS(C)(=O)=O)n1` [Example 19, N-(2-(5-chloro-2-(2-methoxy-5-(piperidine-1-carbonyl)phenylamino)pyrimidin-4-ylamino)phenyl)methanesulfonamide], for which the IC50 on JAK3 is 100 to 1000 nM; against JAK2 it was at least 10000 nM.
Turning to `Cc1ccc(C(=O)N(C)C)cc1Nc1ncc(Cl)c(Nc2ccccc2NS(C)(=O)=O)n1` [Example 24, 3-(5-chloro-4-(2-(methylsulfonamido)phenylamino)pyrimidin-2-ylamino)-N,N,4-trimethylbenzamide], the IC50 on JAK3 was 100 to 1000 nM; at JAK2 it was at least 10000 nM.
The compound `COc1ccc(C(=O)NC(C)C)cc1Nc1ncc(Cl)c(Nc2ccccc2NS(C)(=O)=O)n1` [Example 18] yielded an IC50 against JAK3 below 100 nM.
Turning to `COc1ccc(Nc2nc(Nc3cc(-n4cnnc4)ccc3C)ncc2Cl)c(NS(C)(=O)=O)c1` [Example 13, N-(2-(5-chloro-2-(2-methyl-5-(4H-1,2,4-triazol-4-yl)phenylamino)pyrimidin-4-ylamino)-5-methoxyphenyl)methanesulfonamide], the IC50 at JAK3 is below 100 nM; against JAK2, 100 to 1000 nM.
Consider `CCS(=O)(=O)Nc1ccccc1Nc1nc(Nc2cc(C#N)ccc2OC)ncc1Cl` [Example 25, N-(2-(5-chloro-2-(5-cyano-2-methoxyphenylamino)pyrimidin-4-ylamino)phenyl)ethanesulfonamide], for which the 50% inhibitory concentration (IC50) was 100 to 1000 nM on JAK3 and at least 10000 nM against JAK2.
As for `CNC(=O)c1ccc(Cl)c(Nc2ncc(Cl)c(Nc3ccccc3NS(C)(=O)=O)n2)c1` [Example 16, 4-Chloro-3-(5-chloro-4-(2-(methylsulfonamido)phenylamino)pyrimidin-2-ylamino)-N-methylbenzamide], the values for the IC50 at JAK3 and against JAK2 were 100 to 1000 nM and at least 10000 nM, respectively.
With `C[C@@H]1CCN(C(=O)CC#N)C[C@@H]1N(C)c1ncnc2[nH]ccc12` [CP-690,550], the “efficacy in an animal model of organ transplantation” value with organ transplantation is on record as “show efficacy”.
As for `Cc1ccc(C#N)cc1Nc1ncc(Cl)c(Nc2cccc(F)c2NS(C)(=O)=O)n1` [Example 23, N-(2-(5-chloro-2-(5-cyano-2-methylphenylamino)pyrimidin-4-ylamino)-6-fluorophenyl)methanesulfonamide], the IC50 was 1000 to 10000 nM at JAK3 and at least 10000 nM at JAK2.
With `CCS(=O)(=O)Nc1ccccc1Nc1nc(Nc2cc(C(=O)NC)ccc2OC)ncc1Cl` [Example 27, 3-(5-chloro-4-(2-(ethylsulfonamido)phenylamino)pyrimidin-2-ylamino)-4-methoxy-N-methylbenzamide], the half-inhibitory concentration (IC50) was 100 to 1000 nM against JAK3 and at least 10000 nM at JAK2.
Consider `Cc1ccc(C#N)cc1Nc1ncc(Cl)c(Nc2ccccc2NS(C)(=O)=O)n1` [Example 14, N-(2-(5-chloro-2-(5-cyano-2-methylphenylamino)pyrimidin-4-ylamino)phenyl)methanesulfonamide], for which the half-inhibitory concentration (IC50) at JAK3 was 100 to 1000 nM; on JAK2, 1000 to 10000 nM.
Take `COc1ccc(C(=O)NC2CC2)cc1Nc1ncc(Cl)c(Nc2ccccc2NS(C)(=O)=O)n1` [Example 20]: at JAK3, the IC50 is below 100 nM.
On to `COc1cc2ncnc(Nc3ccc(O)cc3)c2cc1OC` [JANEX-1], for which, in the assay on GVHD, the “severity of GVHD” value is reported as “attenuate the severity of GVHD”. The “prevention of spontaneous autoimmune diabetes development” value in assay [1] is “prevent spontaneous autoimmune diabetes development”.
As to `CNC(=O)c1ccc(OC)c(Nc2ncc(Cl)c(Nc3ccccc3NS(C)(=O)=O)n2)c1` [Example 17, 3-(5-chloro-4-(2-(methylsulfonamido)phenylamino)pyrimidin-2-ylamino)-4-methoxy-N-methylbenzamide], the IC50 is below 100 nM on JAK3 and at least 10000 nM on JAK2.
On JAK3, `CCNC(=O)c1ccc(OC)c(Nc2ncc(Cl)c(Nc3ccccc3NS(C)(=O)=O)n2)c1` [Example 21] displayed a 50% inhibitory concentration (IC50) below 100 nM.

Usually IC50 stands for the concentration that inhibits the measured activity by half. A higher IC50 goes with weaker potency.
